In patent US6979664B1, “Composition for accelerating seed germination and plant growth” (Bios Agriculture Inc., priority 1998, dated 2005):

Key:
Assay type in all cases: in vivo
[1] = tested on: Brassica napus; assay: seedling emergence at 15° C.
Source text: (§1) Plastic pots (7.5 cm dia) were filled with 15 g of autoclaved vermiculite. Seeds of corn (Zea mays—Poaceae), bean (Phaseolus vulgaris—Fabaceae), canola (Brassica napus—Brassicaceae), cucumber (Cucumis sativus—Cucurbitaceae), cantaloupe (Cucumis melo—Cucurbitaceae), cotton (Gossypium sp.—Malvaceae), lettuce (Lactuca sativa—Asteraceae), beet (Beta vulgaris—Chenopodiaceae), and soybean (Glycine max—Fabaceae), were placed at 2.5 cm deep at the rate of 5 or 10 seeds per pot. Pots were irrigated with either 25 mL of LCO solution at different concentrations (10^−6–10^−14M) or aqueous acetonitrile or water, as controls. Acetonitrile was included as one of the controls since LCO was purified in this solvent (see Example 3), after 4 days the pots were irrigated with 10 mL of water once every two days. Each treatment had 4 replications in a randomized block design. Pots were placed on a green house bench maintained at 25±2° C. with a day/night cycle 16/8 h and relative humidity of 70%, or in a growth chamber set at 15° C. with a 16:8 day/night cycle. […] As defined above, seedling emergence has occurred when growth of the plant can be observed above the rooting medium surface. The percent emergence was calculated. The data were analyzed with Statistical Analysis System, version 6.12 (SAS institute Inc. Cary, N.C., USA).

[2] = tested on: Cucumis sativus; assay: seedling emergence at 15° C.
Source text: as §1

[3] = tested on: Zea mays; assay: early growth (after seedling emergence) of Zea mays; conditions: for Leaf area / No. of roots / Root dry wt./plant / Root length / Shoot dry wt./plant / Spent seed dry wt.: 15 DAS
Source text: Plastic pots (7.5 cm dia) were filled with 15 g of autoclaved vermiculite. Seeds of corn (Zea mays—Poaceae), bean (Phaseolus vulgaris—Fabaceae), canola (Brassica napus—Brassicaceae), cucumber (Cucumis sativus—Cucurbitaceae), cantaloupe (Cucumis melo—Cucurbitaceae), cotton (Gossypium sp.—Malvaceae), lettuce (Lactuca sativa—Asteraceae), beet (Beta vulgaris—Chenopodiaceae), and soybean (Glycine max—Fabaceae), were placed at 2.5 cm deep at the rate of 5 or 10 seeds per pot. […] Acetonitrile was included as one of the controls since LCO was purified in this solvent (see Example 3), after 4 days the pots were irrigated with 10 mL of water once every two days. Each treatment had 4 replications in a randomized block design. Pots were placed on a green house bench maintained at 25±2° C. with a day/night cycle 16/8 h and relative humidity of 70%, or in a growth chamber set at 15° C. with a 16:8 day/night cycle. The percent seedling emergence was recorded at 4 days after sowing (DAS). Plant height was recorded from 4 DAS to 15 DAS. Plants were harvested at 15 DAS and leaf area, root length and the number of roots per plant were recorded. The plants were then dissected and placed in paper covers and dried at 90° C. for 24 h and the dry weights of roots, shoots and the spent seeds recorded. The data were analyzed with the Statistical Analysis System version 6.12 (SAS institute Inc. Cary, N.C., USA).

CCCCCCC=CCCCCCCCCCC(=O)NC1C(OC2C(CO)OC(OC3C(CO)OC(OC4C(CO)OC(OC5C(COC6OC(C)C(O)C(O)C6OC)OC(O)C(NC(C)=O)C5O)C(NC(C)=O)C4O)C(NC(C)=O)C3O)C(NC(C)=O)C2O)OC(CO)C(O)C1O (stereo not shown) [LCO, NodBj-V(C18:1Δ11)]
seedling emergence ([1]; 10^−6M): 35 bc | seedling emergence ([1]; 10^−7M): 32 c | seedling emergence ([1]; 10^−8M): 35 bc | seedling emergence ([1]; 10^−9M): 52 ab | seedling emergence ([1]; 10^−10M): 62 a | seedling emergence ([1]; 10^−11M): 47 bc | seedling emergence ([1]; 10^−12M): 45 bc | seedling emergence ([1]; 10^−13M): 37 bc | seedling emergence ([1]; 10^−14M): 30 c | seedling emergence ([2]; 10^−6M): 65 abc | seedling emergence ([2]; 10^−7M): 85 ab | seedling emergence ([2]; 10^−8M): 80 ab | seedling emergence ([2]; 10^−9M): 70 abc | seedling emergence ([2]; 10^−10M): 50 c | seedling emergence ([2]; 10^−11M): 80 ab | seedling emergence ([2]; 10^−12M): 80 ab | seedling emergence ([2]; 10^−13M): 70 abc | seedling emergence ([2]; 10^−14M): 70 abc | Plant height at 15 DAS ([3]; LCO 10−^5): 102.9 c mm | Leaf area ([3]; LCO 10−^5): 11.7 cd cm^2 | No. of roots ([3]; LCO 10−^5): 6.8 cd | Root dry wt./plant ([3]; LCO 10−^5): 75.7 cd mg | Root length ([3]; LCO 10−^5): 137.0 cd mm | Shoot dry wt./plant ([3]; LCO 10−^5): 41.6 bcd mg | Spent seed dry wt. ([3]; LCO 10−^5): 123.5 bc mg | Plant height at 15 DAS ([3]; LCO 10−^6): 130.4 ab mm | Leaf area ([3]; LCO 10−^6): 18.2 a cm^2 | No. of roots ([3]; LCO 10−^6): 7.66 abc | Root dry wt./plant ([3]; LCO 10−^6): 85.1 bc mg | Root length ([3]; LCO 10−^6): 150.8 bc mm | Shoot dry wt./plant ([3]; LCO 10−^6): 51.4 b mg | Spent seed dry wt. ([3]; LCO 10−^6): 90.7 cd mg | Plant height at 15 DAS ([3]; LCO 10−^7): 130.1 ab mm | Leaf area ([3]; LCO 10−^7): 15.7 ab cm^2 | No. of roots ([3]; LCO 10−^7): 8.0 ab | Root dry wt./plant ([3]; LCO 10−^7): 96.5 ab mg | Root length ([3]; LCO 10−^7): 153.9 b mm | Shoot dry wt./plant ([3]; LCO 10−^7): 51.6 b mg | Spent seed dry wt. ([3]; LCO 10−^7): 99.5 cd mg | Plant height at 15 DAS ([3]; LCO 10−^8): 142.6 a mm | Leaf area ([3]; LCO 10−^8): 19.3 a cm^2 | No. of roots ([3]; LCO 10−^8): 8.4 a | Root dry wt./plant ([3]; LCO 10−^8): 103.4 a mg | Root length ([3]; LCO 10−^8): 187.0 a mm | Shoot dry wt./plant ([3]; LCO 10−^8): 66.2 a mg | Spent seed dry wt. ([3]; LCO 10−^8): 76.3 mg·days | Plant height at 15 DAS ([3]; LCO 10−^9): 134.7 ab mm | Leaf area ([3]; LCO 10−^9): 17.0 ab cm^2 | No. of roots ([3]; LCO 10−^9): 7.75 abc | Root dry wt./plant ([3]; LCO 10−^9): 83.3 bc mg | Root length ([3]; LCO 10−^9): 144.4 cbd mm | Shoot dry wt./plant ([3]; LCO 10−^9): 46.8 bc mg | Spent seed dry wt. ([3]; LCO 10−^9): 93.7 cd mg | Plant height at 15 DAS ([3]; LCO 10−^10): 127.1 b mm | Leaf area ([3]; LCO 10−^10): 13.9 bc cm^2 | No. of roots ([3]; LCO 10−^10): 7.95 ab | Root dry wt./plant ([3]; LCO 10−^10): 89.5 abc mg | Root length ([3]; LCO 10−^10): 149.1 bc mm | Shoot dry wt./plant ([3]; LCO 10−^10): 51.4 b mg | Spent seed dry wt. ([3]; LCO 10−^10): 89.8 cd mg | Plant height at 15 DAS ([3]; LCO 10−^11): 103.3 mm | Leaf area ([3]; LCO 10−^11): 8.51 def cm^2 | No. of roots ([3]; LCO 10−^11): 6.69 cd | Root dry wt./plant ([3]; LCO 10−^11): 74.6 cd mg | Root length ([3]; LCO 10−^11): 132.1 d mm | Shoot dry wt./plant ([3]; LCO 10−^11): 38.0 cde mg | Spent seed dry wt. ([3]; LCO 10−^11): 115.9 bc mg | Plant height at 15 DAS ([3]; LCO 10−^12): 98.3 c mm | Leaf area ([3]; LCO 10−^12): 8.0 def cm^2 | No. of roots ([3]; LCO 10−^12): 7.25 | Root dry wt./plant ([3]; LCO 10−^12): 84.6 bc mg | Root length ([3]; LCO 10−^12): 137.9 cd mm | Shoot dry wt./plant ([3]; LCO 10−^12): 40.6 bcde mg | Spent seed dry wt. ([3]; LCO 10−^12): 105.4 od mg | Plant height at 15 DAS ([3]; LCO 10−^13): 91.8 cd mm | Leaf area ([3]; LCO 10−^13): 10.4 cde cm^2 | No. of roots ([3]; LCO 10−^13): 6.7 cd | Root dry wt./plant ([3]; LCO 10−^13): 85.4 bc mg | Root length ([3]; LCO 10−^13): 130.9 d mm | Shoot dry wt./plant ([3]; LCO 10−^13): 43.6 bc mg | Spent seed dry wt. ([3]; LCO 10−^13): 109.6 cd mg | Plant height at 15 DAS ([3]; LCO 10−^14): 99.9 c mm | Leaf area ([3]; LCO 10−^14): 11.2 cde cm^2 | No. of roots ([3]; LCO 10−^14): 7.36 abc | Root dry wt./plant ([3]; LCO 10−^14): 90.2 abc mg | Root length ([3]; LCO 10−^14): 136.8 cd mm | Shoot dry wt./plant ([3]; LCO 10−^14): 46.6 bc mg | Spent seed dry wt. ([3]; LCO 10−^14): 102.9 cd mg | α-amylase activity in the treated seeds ([3]; corn seeds): dramatic increase | start of seedling emergence after seeding ([3]; corn, control 3–4 days): 2 to 3 days | LCO concentration of optimum effect ([3]; early growth of corn (Table 3)): 10^−8 M
